Results reported in patent publication US11702404B2, “GLP-1R modulating compounds” (priority 2019, dated 2023).
Where two headings read alike, the source gives them in different places.

What was measured:
[1] = Microsomal stability, human liver microsomes (predicted hepatic clearance); conditions: predicted from in vitro microsomal stability data
GLP-1R = GLP-1R (Homo sapiens, UniProt P43220); assay: GLP-1R activation: cAMP increase in CHO cells stably expressing GLP-1R; assay type: cell-based
[2] = cAMP increase, CHO cells stably expressing GLP-1R, 10 point dose response, 30 minutes incubation, read-out: EC50

Sequence of GLP-1R (P43220 24-463): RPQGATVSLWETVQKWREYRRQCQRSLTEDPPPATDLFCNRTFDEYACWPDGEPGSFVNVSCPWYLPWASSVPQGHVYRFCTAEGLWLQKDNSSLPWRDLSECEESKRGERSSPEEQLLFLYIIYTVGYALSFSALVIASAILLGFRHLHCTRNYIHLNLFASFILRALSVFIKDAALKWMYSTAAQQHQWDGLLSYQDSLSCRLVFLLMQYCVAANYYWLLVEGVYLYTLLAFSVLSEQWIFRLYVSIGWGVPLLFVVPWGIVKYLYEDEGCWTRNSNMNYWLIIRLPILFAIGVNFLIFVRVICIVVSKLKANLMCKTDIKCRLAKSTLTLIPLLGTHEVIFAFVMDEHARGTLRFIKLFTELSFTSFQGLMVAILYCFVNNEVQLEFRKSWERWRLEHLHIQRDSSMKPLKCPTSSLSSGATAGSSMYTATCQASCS

Structure (SMILES)	Predicted Hepatic Clearance (Pred. Cl.) [1] [mL/min/kg]	EC50 (GLP-1R; [2]) [nM]	EC50 (GLP-1R; EC50 (nM)) [nM]
COCCn1c(Cc2ccc(-c3cccc(OCc4ccc(C#N)cc4F)n3)cc2CO)nc2ccc(C(=O)O)cc21 [Example 425, 2-(4-(6-((4-cyano-2-fluorobenzyl)oxy)pyiridn-2-yl)-2-(hydroxymethyl)benzyl)-1-(2-methoxyethyl)-1H-benzo[d]imidazole-6-carboxylic acid]	6.7	4.29	
COCCn1c(Cc2ccc(-c3cccc(OCc4ccc(Cl)cc4OCC(F)F)n3)cc2F)nc2ccc(C(=O)O)cc21 [Example 244, 2-(4-(6-((4-chloro-2-(2,2-difluoroethoxy)benzyl)oxy)pyridin-2-yl)-2-fluorobenzyl)-1-(2-methoxyethyl)-1H-benzo[d]imidazole-6-carboxylic acid]	5.67	159	
COCCn1c(Cc2ccc(-c3cccc(OCc4ccc(C#N)cc4F)n3)cc2C#CCCO)nc2ccc(C(=O)O)cc21 [Example 255, 2-(4-(6-((4-cyano-2-fluorobenzyl)oxy)pyridin-2-yl)-2-(4-hydroxybut-1-yn-1-yl)benzyl)-1-(2-methoxyethyl)-1H-benzo[d]imidazole-6-carboxylic acid]	8.17	3.31	
COCCn1c(Cc2ccc(-c3cccc(OC4CCOc5cc(C#N)ccc54)n3)cc2F)nc2ccc(C(=O)O)cc21 (stereo not drawn) [Example 246, 2-(4-(6-((7-cyanochroman-4-yl)oxy)pyridin-2-yl)-2-fluorobenzyl)-1-(2-methoxyethyl)-1H-benzo[d]imidazole-6-carboxylic acid]	4.67	1110	
COCCn1c(Cc2ccc(-c3cccc(OCc4cccc5c4OCO5)n3)cc2F)nc2ccc(C(=O)O)cc21 [Example 362, 2-(4-(6-(benzo[d][1,3]dioxol-4-ylmethoxy)pyridin-2-yl)-2-fluorobenzyl)-1-(2-methoxyethyl)-1H-benzo[d]imidazole-6-carboxylic acid]	16.2	21.8	
N#Cc1ccc(COc2cccc(-c3ccc(Cc4nc5c(F)cc(C(=O)O)cc5n4CC(O)CCO)c(F)c3)n2)c(F)c1 (stereo not drawn) [Example 468, 2-[[4-[6-[(4-cyano-2-fluoro-phenyl)methoxy]-2-pyridyl]-2-fluoro-phenyl]methyl]-3-(2,4-dihydroxybutyl)-7-fluoro-benzimidazole-5-carboxylic acid]	2.17	26.9	
COCCn1c(Cc2ccc(-c3cccc(OCc4ccccc4-c4ccccc4)n3)cc2F)nc2ccc(C(=O)O)cc21 [Example 500, 2-(4-(6-([1,1′-biphenyl]-2-ylmethoxy)pyridin-2-yl)-2-fluorobenzyl)-1-(2-methoxyethyl)-1H-benzo[d]imidazole-6-carboxylic acid]	9.67	474	
N#Cc1ccc(COc2cccc(-c3ccc(Cc4nc5ccc(C(=O)O)cc5n4C4(CF)CC4)c(F)c3)n2)c(F)c1 [Example 381, 2-(4-(6-((4-cyano-2-fluorobenzyl)oxy)pyridin-2-yl)-2-fluorobenzyl)-1-(1-(fluoromethyl)cyclopropyl)-1H-benzo[d]imidazole-6-carboxylic acid]	<1.83	7.43	
N#Cc1ccc(COc2cccc(-c3ccc(Cc4nc5ccc(C(=O)O)cc5n4CC4CCS4(=O)=O)c(F)c3)n2)c(F)c1 (single isomer, unassigned) [Example 70, 2-(4-(6-((4-cyano-2-fluorobenzyl)oxy)pyridin-2-yl)-2-fluorobenzyl)-1-((1,1-dioxidothietan-2-yl)methyl)-1H-benzo[d]imidazole-6-carboxylic acid]	2.17	64	
COCCn1c(Cc2c(F)cc(-c3cccc(OCc4ccc(C(F)F)cc4F)n3)c(F)c2F)nc2ccc(C(=O)O)cc21 [Example 750]	4.17	1.26	
N#Cc1ccc(COc2cccc(-c3ccc(Cc4nc5ccc(C(=O)O)cc5n4CC4(CO)COC4)c(F)c3)n2)c(F)c1 [Example 326, 2-(4-(6-((4-cyano-2-fluorobenzyl)oxy)pyridin-2-yl)-2-fluorobenzyl)-1-((3-(hydroxymethyl)oxetan-3-yl)methyl)-1H-benzo[d]imidazole-6-carboxylic acid]	12.3	6.81	
CC1(Cn2c(Cc3ccc(-c4cccc(OCc5ccc(C#N)cc5F)n4)cc3C#N)nc3ccc(C(=O)O)cc32)CC1 [Example 117, 2-(2-cyano-4-(6-((4-cyano-2-fluorobenzyl)oxy)pyridin-2-yl)benzyl)-1-((1-methylcyclopropyl)methyl)-1H-benzo[d]imidazole-6-carboxylic acid]	<1.83	62.2	
COCCn1c(Cc2ccc(-c3cccc(OCc4ccc(C#N)cc4F)n3)c(C#N)c2)nc2ccc(C(=O)O)cc21 [Example 526, 2-(3-cyano-4-(6-((4-cyano-2-fluorobenzyl)oxy)pyridin-2-yl)benzyl)-1-(2-methoxyethyl)-1H-benzo[d]imidazole-6-carboxylic acid]	7.5		70.9
COCCn1c(Cc2ccc(-c3cccc(OCc4ccccc4C(F)F)n3)cc2F)nc2ccc(C(=O)O)cc21 [Example 507, 2-(4-(6-((2-(difluoromethyl)benzyl)oxy)pyridin-2-yl)-2-fluorobenzyl)-1-(2-methoxyethyl)-1H-benzo[d]imidazole-6-carboxylic acid]	19.2	361	
N#CCC1(Cn2c(Cc3ccc(-c4ccnc(OCc5ccc(C#N)cc5F)n4)c(F)c3)nc3ccc(C(=O)O)nc32)CC1 [Example 300, 2-(4-(2-((4-cyano-2-fluorobenzyl)oxy)pyrimidin-4-yl)-3-fluorobenzyl)-3-((1-(cyanomethyl)cyclopropyl)methyl)-3H-imidazo[4,5-b]pyridine-5-carboxylic acid]	<1.83	0.68	
CCn1cncc1Cn1c(Cc2ccc(-c3cccc(OCc4ccc(C#N)cc4F)n3)c(F)c2)nc2ccc(C(=O)O)cc21 [Example 520, 2-(4-(6-((4-cyano-2-fluorobenzyl)oxy)pyridin-2-yl)-3-fluorobenzyl)-1-((1-ethyl-1H-imidazol-5-yl)methyl)-1H-benzo[d]imidazole-6-carboxylic acid]	6.25	0.36	
CO[C@H](C)Cn1c(Cc2ccc(-c3cccc(OCc4ccc(C#N)cc4F)n3)cc2F)nc2ccc(C(=O)O)cc21 [Example 327, (R)-2-(4-(6-((4-cyano-2-fluorobenzyl)oxy)pyridin-2-yl)-2-fluorobenzyl)-1-(2-methoxypropyl)-1H-benzo[d]imidazole-6-carboxylic acid]	3	7.73	
COCCn1c(Cc2ccc(-c3cccc(OCc4cccc(OC(F)F)c4F)n3)cc2F)nc2ccc(C(=O)O)cc21 [Example 138, 2-(4-(6-((3-(difluoromethoxy)-2-fluorobenzyl)oxy)pyridin-2-yl)-2-fluorobenzyl)-1-(2-methoxyethyl)-1H-benzo[d]imidazole-6-carboxylic acid]	7.5	84.7	
